Results as given in DBAASP.
Values after ≈ are worked out from the molar mass of the structure shown.

Assays:
Experiment in all cases: ≥ marks a high value that may be exact or a test limit, other limits are often not marked, values filed in µg/mL are converted to µM
[1] = test system: Bacillus subtilis ATCC 23857
[2] = test system: Bacillus subtilis CMCC 63501
[3] = test system: Klebsiella pneumoniae ATCC 700603
[4] = test system: Pseudomonas aeruginosa ATCC 27853
[5] = test system: Salmonella enterica subsp. enterica serovar Pullorum C79-13
[6] = test system: Salmonella enterica subsp. enterica serovar Typhimurium C77-31
[7] = test system: Staphylococcus aureus ATCC 25923
[8] = test system: Staphylococcus aureus ATCC 29213
[9] = test system: Staphylococcus epidermidis ATCC 12228
[10] = test system: Pseudomonas aeruginosa Ps4
[11] = test system: Candida albicans ATCC 90028
[12] = test system: Escherichia coli ATCC 25922
[13] = test system: Staphylococcus aureus NCTC 8325
Streptococcus mutans = test system: Streptococcus mutans

Compound: CC[C@H](C)[C@H](N)C(=O)N[C@@H](CCCN=C(N)N)C(=O)N[C@H](C(=O)N[C@@H](CCCN=C(N)N)C(=O)N[C@@H](CS)C(=O)N[C@@H](CCCN=C(N)N)C(=O)N[C@@H](CCCN=C(N)N)C(=O)N[C@@H](CCCN=C(N)N)C(=O)N[C@@H](Cc1ccccc1)C(=O)N[C@@H](CS)C(=O)N[C@@H](CCCN=C(N)N)C(=O)N[C@H](C(=O)N[C@@H](CCCN=C(N)N)C(=O)N[C@H](C(N)=O)[C@@H](C)CC)[C@@H](C)CC)[C@@H](C)CC [IRIRCRRRFCRIRI]
- MIC [1]: 4 µM (≈ 7.67 µg/mL)
- MIC [2]: 2 µM (≈ 3.83 µg/mL)
- MIC [3]: 8 µM (≈ 15.3 µg/mL)
- MIC [4]: 4 µM (≈ 7.67 µg/mL)
- MIC [5]: 1 µM (≈ 1.92 µg/mL)
- MIC [6]: 4 µM (≈ 7.67 µg/mL)
- MIC [7]: 8 µM (≈ 15.3 µg/mL)
- MIC [8]: 4 µM (≈ 7.67 µg/mL)
- MIC [9]: 4 µM (≈ 7.67 µg/mL)

Compound: CC[C@H](C)[C@H](NC(=O)[C@H](CC(N)=O)NC(=O)[C@H](CCCN=C(N)N)NC(=O)[C@H](CCC(N)=O)NC(=O)[C@H](Cc1c[nH]c2ccccc12)NC(=O)[C@@H](N)Cc1ccccc1)C(=O)N[C@@H](CCCN=C(N)N)C(=O)N[C@@H](CCCCN)C(=O)N[C@@H](Cc1ccc(O)cc1)C(=O)N[C@@H](CCCN=C(N)N)C(N)=O [FWQRNIRKYR]
- MIC [10]: ≥ 170 µM

Compound: CC[C@H](C)[C@H](NC(=O)[C@H](CCCCN)NC(=O)[C@H](CC(C)C)NC(=O)[C@H](CC(C)C)NC(=O)[C@@H]1CCCN1C(=O)CNC(=O)[C@H](CC(C)C)NC(=O)[C@H](CC(C)C)NC(=O)CN)C(=O)N[C@@H](C)C(=O)N[C@@H](C)C(=O)N[C@@H](CCCCN)C(=O)N[C@H](C(=O)NCC(=O)N[C@@H](CO)C(=O)N[C@@H](CC(N)=O)C(=O)N[C@@H](CC(C)C)C(=O)N[C@@H](CC(C)C)C(=O)O)C(C)C [GLLGPLLKIAAKVGSNLL]
- MIC [11]: ≥ 200 µM
- MIC [12]: 60 µM (≈ 107 µg/mL)
- MIC [13]: ≥ 130 µM

Compound: CC[C@H](C)[C@H](NC(=O)[C@H](CCCN=C(N)N)NC(=O)[C@H](CCC(N)=O)NC(=O)[C@H](Cc1c[nH]c2ccccc12)NC(=O)[C@@H](N)Cc1ccccc1)C(=O)N[C@@H](CCCN=C(N)N)C(=O)N[C@@H](CCCCN)C(=O)N[C@H](C(=O)N[C@@H](CCCN=C(N)N)C(N)=O)C(C)C [FWQRIRKVR]
- MIC [10]: ≥ 194 µM

Compound: CC[C@H](C)[C@H](NC(=O)[C@H](CC(N)=O)NC(=O)[C@H](CCCN=C(N)N)NC(=O)[C@H](CCC(N)=O)NC(=O)[C@H](Cc1ccc(O)cc1)NC(=O)[C@@H](N)Cc1ccccc1)C(=O)N[C@@H](CCCN=C(N)N)C(=O)N[C@@H](CCCCN)C(=O)N[C@H](C(=O)N[C@@H](CCCN=C(N)N)C(N)=O)C(C)C [FYQRNIRKVR]
- MIC [10]: ≥ 181 µM

Compound: CC[C@H](C)[C@H](NC(=O)[C@H](CCCCN)NC(=O)[C@H](CCSC)NC(=O)[C@H](CC(C)C)NC(=O)CNC(=O)CNC(=O)[C@H](CC(C)C)NC(=O)[C@@H](N)Cc1ccccc1)C(=O)N[C@H](C(=O)N1CCC[C@H]1C(=O)N[C@@H](C)C(=O)N[C@@H](C)C(=O)N[C@@H](Cc1ccccc1)C(=O)N[C@H]1CSSC[C@@H](C(=O)O)NC(=O)[C@H](CCCCN)NC(=O)[C@H](CCCCN)NC(=O)[C@H]([C@@H](C)O)NC(=O)[C@H](C(C)C)NC(=O)[C@H](C)NC1=O)[C@@H](C)CC [FLGGLMKIIPAAFCAVTKKC]
- MIC [11]: ≥ 70 µM
- MIC [12]: 9 µM (≈ 19 µg/mL)
- MIC [13]: 18 µM (≈ 38 µg/mL)

Compound: CC[C@H](C)[C@H](NC(=O)[C@H](Cc1c[nH]c2ccccc12)NC(=O)[C@H](CC(N)=O)NC(=O)[C@H](CCCN=C(N)N)NC(=O)[C@H](CCC(N)=O)NC(=O)[C@H](Cc1c[nH]c2ccccc12)NC(=O)[C@@H](N)Cc1ccccc1)C(=O)N[C@@H](CCCN=C(N)N)C(=O)N[C@@H](CCCN=C(N)N)C(N)=O [FWQRNWIRR]
- MIC [10]: ≥ 184 µM

Compound: CC[C@H](C)[C@H](NC(=O)[C@H](CC(N)=O)NC(=O)[C@H](CCCN=C(N)N)NC(=O)[C@H](CCC(N)=O)NC(=O)[C@H](Cc1c[nH]c2ccccc12)NC(=O)[C@@H](N)Cc1ccccc1)C(=O)N[C@@H](CCCN=C(N)N)C(=O)N[C@@H](CO)C(=O)N[C@H](C(=O)N[C@@H](CCCN=C(N)N)C(N)=O)C(C)C [FWQRNIRSVR]
- MIC [10]: ≥ 184 µM

Compound: CC[C@H](C)[C@H](NC(=O)[C@H](CCCCN)NC(=O)[C@H](C)NC(=O)[C@H](CC(C)C)NC(=O)[C@H](CC(=O)O)NC(=O)[C@@H](NC(=O)[C@H](C)N)C(C)C)C(=O)N[C@@H](C)C(=O)N[C@@H](CC(N)=O)C(=O)N[C@@H](CCCCN)C(=O)N[C@H](C(=O)N[C@@H](CC(C)C)C(=O)N[C@@H](CO)C(=O)N[C@@H](CO)C(=O)N[C@@H](CC(C)C)C(=O)N[C@@H](Cc1ccccc1)C(N)=O)C(C)C [AVDLAKIANKVLSSLF]
- MIC [12]: 37.5 µM (≈ 63.3 µg/mL)
- MIC [13]: ≥ 150 µM

Compound: CC[C@H](C)[C@H](NC(=O)[C@H](CCCN=C(N)N)NC(=O)[C@H](Cc1c[nH]c2ccccc12)NC(=O)[C@H](CCCN=C(N)N)NC(=O)[C@H](Cc1c[nH]c2ccccc12)NC(=O)[C@@H](N)Cc1ccccc1)C(=O)N[C@@H](Cc1c[nH]c2ccccc12)C(=O)N[C@@H](CCCN=C(N)N)C(N)=O [FWRWRIWR]
- MIC [10]: 23.9 µM (≈ 31.2 µg/mL)

Compound: CC[C@H](C)[C@H](NC(=O)CNC(=O)CNC(=O)CNC(=O)[C@H](Cc1ccccc1)NC(=O)[C@H](Cc1c[nH]c2ccccc12)NC(=O)[C@H](CCCN=C(N)N)NC(=O)[C@H](Cc1c[nH]c2ccccc12)NC(=O)[C@H](CCCN=C(N)N)NC(=O)[C@H](Cc1c[nH]c2ccccc12)NC(=O)[C@@H](N)CCCN=C(N)N)C(=O)N[C@@H](CCCCN)C(=O)N[C@@H](CCC(N)=O)C(=O)N[C@@H](CC(C)C)C(=O)N[C@@H](CC(C)C)C(=O)N[C@@H](Cc1cnc[nH]1)C(=O)N[C@@H](Cc1ccccc1)C(=O)N[C@@H](Cc1ccccc1)C(=O)N[C@@H](CCC(N)=O)C(=O)N[C@@H](Cc1c[nH]c2ccccc12)C(=O)N[C@@H](CCCN=C(N)N)C(=O)N[C@@H](Cc1ccccc1)C(N)=O [RWRWRWFGGGIKQLLHFFQWRF]
- MIC (Streptococcus mutans): 3.76 µM (≈ 11.3 µg/mL)

Compound: CC[C@H](C)[C@H](NC(=O)[C@@H](N)CCCN=C(N)N)C(=O)N[C@@H](CC(C)C)C(=O)N[C@@H](CCCCN)C(=O)N[C@@H](CCC(=O)O)C(=O)N[C@@H](CC(C)C)C(=O)N[C@@H](CCCCN)C(=O)N[C@@H](CC(N)=O)C(=O)N[C@@H](CC(C)C)C(=O)N[C@@H](Cc1ccccc1)C(=O)N[C@@H](CCCCN)C(=O)O [RILKELKNLFK]
- MIC (Streptococcus mutans): ≥ 178 µM

Compound: CC[C@H](C)[C@H](NC(=O)[C@H](CCC(N)=O)NC(=O)[C@H](CC(N)=O)NC(=O)[C@H](Cc1ccccc1)NC(=O)[C@@H](NC(=O)[C@H](CCC(N)=O)NC(=O)[C@H](CC(C)C)NC(=O)[C@H](CC(C)C)NC(=O)[C@@H](N)CCCCN)[C@@H](C)O)C(=O)N[C@@H](Cc1ccccc1)C(=O)N[C@@H](CCCN=C(N)N)C(=O)O [KLLQTFNQIFR]
- MIC (Streptococcus mutans): ≥ 88.8 µM

Compound: CC[C@H](C)[C@H](NC(=O)[C@H](CC(N)=O)NC(=O)[C@H](CO)NC(=O)[C@H](CCC(N)=O)NC(=O)[C@H](Cc1c[nH]c2ccccc12)NC(=O)[C@@H](N)Cc1ccccc1)C(=O)N[C@@H](CCCN=C(N)N)C(=O)N[C@@H](CCCCN)C(=O)N[C@H](C(=O)N[C@@H](CCCN=C(N)N)C(N)=O)C(C)C [FWQSNIRKVR]
- MIC [10]: ≥ 187 µM

Compound: NC(=O)[C@H](Cc1ccccc1)NC(=O)[C@H](CCCN=C(N)N)NC(=O)[C@H](CCCN=C(N)N)NC(=O)[C@H](Cc1c[nH]c2ccccc12)NC(=O)[C@H](Cc1c[nH]c2ccccc12)NC(=O)[C@H](CCCN=C(N)N)NC(=O)[C@@H](N)CCCN=C(N)N [RRWWRRF]
- MIC (Streptococcus mutans): 14.6 µM (≈ 17 µg/mL)

Compound: CC[C@H](C)[C@H](NC(=O)[C@H](CCCN=C(N)N)NC(=O)[C@@H](NC(=O)[C@H](CC(N)=O)NC(=O)[C@H](CCCN=C(N)N)NC(=O)[C@H](CCC(N)=O)NC(=O)[C@H](Cc1c[nH]c2ccccc12)NC(=O)[C@H](Cc1ccccc1)NC(=O)[C@@H](N)Cc1ccccc1)[C@@H](C)CC)C(=O)N[C@@H](CCCN=C(N)N)C(=O)N[C@@H](CCCN=C(N)N)C(N)=O [FFWQRNIRIRR]
- MIC [10]: ≥ 157 µM
